Results on three compounds are retold here after article PMC2775441 (Pediatric blood & cancer, 2009).

Marks after values point to notes of the source that are not given here.

A short description of series [1]: Plasma pharmacokinetics of SU5416 and its metabolites. Format: in vivo, human. The conditions noted are these: for half-life: human, plasma, iv.
Series [2] can be described thus: Phase I dose escalation: dose-limiting toxicity, MTD and adverse events. The conditions noted are these: human, in vivo.
Series [3] relates to refractory pediatric central nervous system tumors. Description: Tumor response by neuro-imaging. The class given is in vivo, human.
The conditions of series [4]: adults, interval between successive doses less than 7 days; ref [20]; cited from earlier work.
For series [5] the following is noted: ref [11]; cited from earlier work.
For a further series, the system named is CYP3A4. The conditions noted are these: ref [33], [39]; cited from earlier work.
For series [6] the following is noted: adults with solid tumors, ref [16], [18], [23]–[25], [30], cited from earlier work.
Where [7] appears, read: Stratum I (no EIACD), SU5416 110 mg/m^2 IV, week 1, 13 patients, mean ± SD.
The mark [8] stands for this setting: Stratum I (no EIACD), SU5416 110 mg/m^2 IV, week 6, 10 patients, mean ± SD.
[9] abbreviates: Stratum I (no EIACD), SU5416 145 mg/m^2 IV, week 1, 6 patients, mean ± SD.
The mark [10] stands for this setting: Stratum I (no EIACD), SU5416 145 mg/m^2 IV, week 6, 3 patients, mean ± SD.
Where [11] appears, read: Stratum I (no EIACD), all SU5416 doses IV, week 1, 19 patients, mean ± SD.
The mark [12] stands for this setting: Stratum I (no EIACD), all SU5416 doses IV, week 6, 13 patients, mean ± SD.
Setting [13] is: Stratum II (EIACD), SU5416 35 mg/m^2 IV, week 1, 1 patient.
[14] abbreviates: Stratum II (EIACD), SU5416 48 mg/m^2 IV, week 1, 2 patients, mean ± SD.
[15] abbreviates: Stratum II (EIACD), SU5416 65 mg/m^2 IV, week 1, 6 patients, mean ± SD.
Where [16] appears, read: Stratum II (EIACD), all SU5416 doses IV, week 1, 9 patients, mean ± SD.
Where [17] appears, read: Stratum I (no EIACD), 110 mg/m^2 IV, week 1, 13 patients, mean ± SD.
Where [18] appears, read: Stratum I (no EIACD), 110 mg/m^2 IV, week 6, 10 patients, mean ± SD.
Setting [19] is: Stratum I (no EIACD), 145 mg/m^2 IV, week 1, 6 patients, mean ± SD.
Where [20] appears, read: Stratum I (no EIACD), 145 mg/m^2 IV, week 6, 3 patients, mean ± SD.
Setting [21] is: Stratum I (no EIACD), all doses IV, week 6, 13 patients, mean ± SD.
[22] abbreviates: Stratum II (EIACD), 35 mg/m^2 IV, week 1, 1 patient.
Setting [23] is: Stratum II (EIACD), 48 mg/m^2 IV, week 1, 2 patients, mean ± SD.
Where [24] appears, read: Stratum II (EIACD), 65 mg/m^2 IV, week 1, 6 patients, mean ± SD.
Where [25] appears, read: Stratum II (EIACD), all doses IV, week 1, 9 patients, mean ± SD.

For `Cc1cc(C(=O)O)[nH]c1C=C1C(=O)Nc2ccccc21` [SU6595], the “Relative extent of metabolism (%), AUC(0-t) metabolite/parent: SU6595” value is given as 57.4 ± 36.4% in series [1] (setting [7]); 72.9 ± 43.9% in series [1] (setting [8]); 37.4 ± 25.3% in series [1] (setting [9]); 72.4 ± 26.1% in series [1] (setting [10]); 50.1 ± 33.2% in series [1] (setting [11]); 72.8 ± 39.1% in series [1] (setting [12]). Besides, the “Relative extent of metabolism (%), AUC(0-t) metabolite/parent: SU6595” value in series [1] (setting [13]) came to 55.2%; in series [1] (setting [14]) it was 26.4 ± 1.1%; in series [1] (setting [15]) it was 57.3 ± 20.4%; in series [1] (setting [16]), 48.1 ± 21.3%.
In general, half-life refers to the time needed for the level to fall by half in the phase considered. Consider `Cc1cc(C)c(/C=C2\C(=O)Nc3ccccc32)[nH]1` [SU5416, semaxanib], for which the “most serious drug-related toxicities” value in series [2] was “grade 3 liver enzyme abnormalities, arthralgia and hallucinations”. The “Stable Disease Duration (months)” value in series [3] (Pt 1, Glioblastoma Multiforme, Spinal Cord) was determined as 5.3 months; in series [3] (Pt 3, Choroid Plexus Carcinoma, Cerebrum), 14.3 months; in series [3] (Pt 8, Glioblastoma Multiforme, Parietal lobe), 15.9 months; in series [3] (Pt 19, Astrocytoma, Anaplastic, Frontal lobe), 10.6 months; in series [3] (Pt 26, Astrocytoma, NOS, Supratentorial), 5.9 months. The “Change from baseline (%)” value in series [3] (Pt 1, Glioblastoma Multiforme, tumor size, 1.4 months from treatment) came to 0%. Further, the Tumor size in series [3] (Pt 8, Glioblastoma Multiforme, FLAIR, 2.7 months from treatment, baseline 32.7) worked out at 35.5 cm^3; in series [3] (Pt 8, Glioblastoma Multiforme, FLAIR, 8.1 months from treatment, baseline 32.7) it was 29.1 cm^3; in series [3] (Pt 8, Glioblastoma Multiforme, FLAIR, 9.7 months from treatment, baseline 32.7), 23.9 cm^3; in series [3] (Pt 8, Glioblastoma Multiforme, FLAIR, 11.1 months from treatment, baseline 32.7) it was 30.5 cm^3; in series [3] (Pt 8, Glioblastoma Multiforme, FLAIR, 15.9 months from treatment, baseline 32.7) it was 28.9 cm^3; in series [3] (Pt 26, Astrocytoma, NOS, Enhancement, 2.6 months from treatment, baseline 28.1), 31.9 cm^2. For the same compound, the Tumor size in series [3] (Pt 26, Astrocytoma, NOS, Enhancement, 4.4 months from treatment, baseline 28.1) came out at 34.7 cm^2; in series [3] (Pt 26, Astrocytoma, NOS, Enhancement, 5.9 months from treatment, baseline 28.1), 34.7 cm^2. Further, the “Radiographic response after course 1: CR or PR (number of patients)” value came to 0 in series [3] (Stratum I, 16 evaluable) and 0 in series [3] (Stratum II, 6 evaluable). Also, the “Radiographic response after course 1: PD (number of patients)” value in series [3] (Stratum I, 16 evaluable) is 10; in series [3] (Stratum II, 6 evaluable), 5. Besides, the “Radiographic response after course 1: PD (percent of evaluable patients)” value in series [3] (Stratum I, 16 evaluable) turned out to be 63%; in series [3] (Stratum II, 6 evaluable) it was 83%. In addition, the “Radiographic response after course 1: SD (number of patients)” value in series [3] (Stratum I, 16 evaluable) was 6; in series [3] (Stratum II, 6 evaluable), 1. Further, the “Radiographic response after course 1: SD (percent of evaluable patients)” value was found to be 38% in series [3] (Stratum I, 16 evaluable) and 17% in series [3] (Stratum II, 6 evaluable). Besides, the “patients with sustained (prolonged) stable disease of possible clinical benefit” value in series [3] (Stratum I, patients evaluable for response) is on record as 4 of 16. In series [3] (either stratum), the objective responses result was “No objectives responses”. Besides, the “CL (total body clearance)” value is 28.7 ± 12.8 ^a liter/h/m^2 in series [1] (setting [17]); 38.0 ± 28.7 liter/h/m^2 in series [1] (setting [18]); 21.3 ± 11.5 liter/h/m^2 in series [1] (setting [19]); 26.1 ± 17.1 liter/h/m^2 in series [1] (setting [20]); 34.9 ± 24.9 liter/h/m^2 in series [1] (setting [21]); 33.1 liter/h/m^2 in series [1] (setting [22]). In addition, the “CL (total body clearance)” value is on record as 48.0 ± 5.1 liter/h/m^2 in series [1] (setting [23]), 27.8 ± 11.4 liter/h/m^2 in series [1] (setting [24]) and 32.0 ± 13.1 liter/h/m^2 in series [1] (setting [25]). The “Vz (apparent volume of distribution)” value in series [1] (setting [17]) came to 43.3 ± 20.3 liter/m^2; in series [1] (setting [18]), 65.5 ± 26.7 liter/m^2; in series [1] (setting [19]), 39.1 ± 24.8 liter/m^2; in series [1] (setting [20]) it was 37.2 ± 33.5 liter/m^2; in series [1] (setting [21]) it was 57.5 ± 34.6 liter/m^2; in series [1] (setting [22]), 23.5 liter/m^2. Further, the “Vz (apparent volume of distribution)” value in series [1] (setting [23]) is reported as 74.3 ± 71.7 liter/m^2; in series [1] (setting [24]) it was 45.5 ± 26.7 liter/m^2; in series [1] (setting [25]), 47.1 ± 30.6 liter/m^2. Besides, the half-life is 1.07 ± 0.9 h in series [1] (48 mg/m2, t1/2,z (terminal phase half-life), Stratum II (EIACD), 48 mg/m^2 IV, week 1, 2 patients, mean ± SD) and 1.13 ± 0.62 h in series [1] (65 mg/m2, t1/2,z (terminal phase half-life), Stratum II (EIACD), 65 mg/m^2 IV, week 1, 6 patients, mean ± SD). In series [4], the “increase of clearance upon repeated administration” value is given as “more than 50%”. The “penetration into the CSF” value in series [5] is given as “does not penetrate the CSF”. Further, the “role of CYP3A4 in elimination of SU5416” value in the series with CYP3A4 is “major isozyme catalyzing the initial oxidation”. For the same compound, in series [6] (intravenously twice weekly), the MTD in adults is 145 mg/m^2. In series [6], the “Dose-limiting toxicities in adults” value was “headache, nausea, and vomiting”.
As for `Cc1cc(CO)[nH]c1/C=C1\C(=O)Nc2ccccc21` [SU9838], the “Relative extent of metabolism (%), AUC(0-t) metabolite/parent: SU9838” value was determined as 3.95 ± 1.59% in series [1] (setting [7]); 4.41 ± 2.28% in series [1] (setting [8]); 3.98 ± 2.13% in series [1] (setting [9]); 5.24 ± 0.81% in series [1] (setting [10]); 3.96 ± 1.68% in series [1] (setting [11]); 4.59 ± 2.11% in series [1] (setting [12]). The “Relative extent of metabolism (%), AUC(0-t) metabolite/parent: SU9838” value in series [1] (setting [13]) is 2.44%; in series [1] (setting [14]) it was 4.07 ± 1.37%; in series [1] (setting [15]) it was 5.72 ± 3.41%; in series [1] (setting [16]), 4.82 ± 2.69%.
